Reference: ChEMBL document CHEMBL5390221, “Synthesis and biological activity assay of novel camptothecin-peptidic conjugates based on PEPT1” (Bioorg Med Chem Lett, 2023)

Experiments:
[1] = Cytotoxicity against human MPC2 cells assessed as inhibition of cell growth; format: functional, cell-based
DU-145 = experiment: Cytotoxicity against human DU-145 cells assessed as inhibition of cell growth; format: functional, cell-based
NCI-H520 = experiment: Cytotoxicity against human NCI-H520 cells assessed as inhibition of cell growth; format: functional, cell-based
BXPC-3 = experiment: Cytotoxicity against human BXPC-3 cells assessed as inhibition of cell growth; format: functional, cell-based
HepG2 = experiment: Cytotoxicity against human HepG2 cells assessed as inhibition of cell growth; format: functional, cell-based
[2] = molecular target: T1, Solute carrier family 15 member 1 (Homo sapiens) (UniProt P46059); experiment: Inhibition of PEPT1 (unknown origin) expressed in HEK293T cells assessed as inhibition of PEPT1 mediated Gly-Sar uptake using Gly-Sar as substrate at 20 uM relative to control; format: cell-based
T1 sequence (whole entry): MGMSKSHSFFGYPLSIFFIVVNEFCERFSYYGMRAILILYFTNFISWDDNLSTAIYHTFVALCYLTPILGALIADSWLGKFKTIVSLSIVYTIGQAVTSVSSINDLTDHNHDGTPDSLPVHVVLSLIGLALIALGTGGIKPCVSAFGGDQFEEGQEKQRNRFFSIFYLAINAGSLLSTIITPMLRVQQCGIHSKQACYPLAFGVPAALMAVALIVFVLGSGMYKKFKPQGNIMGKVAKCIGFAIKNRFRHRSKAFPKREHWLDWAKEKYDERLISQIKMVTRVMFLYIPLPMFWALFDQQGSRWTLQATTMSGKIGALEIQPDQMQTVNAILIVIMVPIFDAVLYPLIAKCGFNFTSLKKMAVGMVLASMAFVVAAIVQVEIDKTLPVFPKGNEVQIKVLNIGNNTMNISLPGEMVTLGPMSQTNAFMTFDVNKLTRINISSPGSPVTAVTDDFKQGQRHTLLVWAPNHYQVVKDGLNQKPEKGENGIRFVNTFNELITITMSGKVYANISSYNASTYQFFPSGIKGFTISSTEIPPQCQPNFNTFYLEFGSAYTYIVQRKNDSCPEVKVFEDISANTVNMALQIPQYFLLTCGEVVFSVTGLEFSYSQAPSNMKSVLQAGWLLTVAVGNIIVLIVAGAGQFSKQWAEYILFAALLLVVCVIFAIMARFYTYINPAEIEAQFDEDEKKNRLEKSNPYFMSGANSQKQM

Hep 3B2 = experiment: Cytotoxicity against human Hep3B cells assessed as inhibition of cell growth; format: functional, cell-based

Compound | IC50 [1] [nM] | IC50 (DU-145) [nM] | IC50 (NCI-H520) [nM] | IC50 (BXPC-3) [nM] | IC50 (HepG2) [nM] | inhibition [2] [%] | IC50 (Hep 3B2) [nM]
CC[C@@]1(OC(=O)CNC(=O)[C@@H](NC(C)=O)C(C)C)C(=O)OCc2c1cc1n(c2=O)Cc2cc3ccccc3nc2-1 | 209 | 87 | 125 | 54.8 | 150 | > 50 | 914
CCCC(=O)NCC(=O)O[C@]1(CC)C(=O)OCc2c1cc1n(c2=O)Cc2cc3ccccc3nc2-1 | 106 | 55 | 153 | 157 | 91.8 | > 50 | 1510
CC[C@@]1(OC(=O)CNC(=O)CNC(C)=O)C(=O)OCc2c1cc1n(c2=O)Cc2cc3ccccc3nc2-1 | 153 | 76.1 | 98.6 | 75.2 | 59.1 | – | 767
CC[C@H](C)[C@H](NC(=O)OC(C)(C)C)C(=O)NCC(=O)O[C@]1(CC)C(=O)OCc2c1cc1n(c2=O)Cc2cc3ccccc3nc2-1 | 166 | 97 | 58.5 | 222 | 176 | – | 1770
CC[C@@]1(OC(=O)CNC(=O)[C@H](C)NC(=O)OC(C)(C)C)C(=O)OCc2c1cc1n(c2=O)Cc2cc3ccccc3nc2-1 | 180 | 68.1 | 67.9 | 92.8 | 114 | – | 850
CC[C@@]1(OC(=O)CNC(=O)[C@H](C)NC(C)=O)C(=O)OCc2c1cc1n(c2=O)Cc2cc3ccccc3nc2-1 | 91.4 | 67.5 | 69.3 | 108 | 88.7 | – | 1010
CC[C@@]1(OC(=O)CNC(=O)[C@H](CC(N)=O)NC(=O)OC(C)(C)C)C(=O)OCc2c1cc1n(c2=O)Cc2cc3ccccc3nc2-1 | 260 | 89.9 | 58 | 84.2 | 88.6 | > 50 | 784
CCCCCC(=O)NCC(=O)O[C@]1(CC)C(=O)OCc2c1cc1n(c2=O)Cc2cc3ccccc3nc2-1 | 79.4 | 46.1 | 162 | 105 | 114 | – | 1530
CC[C@@]1(OC(=O)CNC(=O)[C@H](Cc2ccccc2)NC(C)=O)C(=O)OCc2c1cc1n(c2=O)Cc2cc3ccccc3nc2-1 | 102 | 51.7 | 56.9 | 89.5 | 60.4 | > 50 | 973
CC[C@@]1(OC(=O)CNC(=O)[C@H](CCC(N)=O)NC(=O)OC(C)(C)C)C(=O)OCc2c1cc1n(c2=O)Cc2cc3ccccc3nc2-1 | 387 | 144 | 135 | 121 | 144 | > 50 | 999
CC[C@H](C)[C@H](NC(C)=O)C(=O)NCC(=O)O[C@]1(CC)C(=O)OCc2c1cc1n(c2=O)Cc2cc3ccccc3nc2-1 | 197 | 94.4 | 109 | 153 | 70.4 | – | 847
CC[C@@]1(OC(=O)CNC(=O)C(C)C)C(=O)OCc2c1cc1n(c2=O)Cc2cc3ccccc3nc2-1 | 97.1 | 55.4 | 87.2 | 167 | 129 | – | 969
CC[C@@]1(OC(=O)CNC(=O)[C@@H](NC(=O)OC(C)(C)C)C(C)C)C(=O)OCc2c1cc1n(c2=O)Cc2cc3ccccc3nc2-1 | 204 | 78.8 | 78.5 | 143 | 197 | – | 872
CC[C@@]1(O)C(=O)OCc2c1cc1n(c2=O)Cc2cc3ccccc3nc2-1 [CAMPTOTHECIN] | 83.7 | 33.5 | 25 | 62.5 | 33.2 | – | 434
CCC(=O)NCC(=O)O[C@]1(CC)C(=O)OCc2c1cc1n(c2=O)Cc2cc3ccccc3nc2-1 | 155 | 52.8 | 166 | 123 | 109 | > 50 | 1010
CC[C@@]1(OC(=O)CNC(=O)[C@H](Cc2ccccc2)NC(=O)OC(C)(C)C)C(=O)OCc2c1cc1n(c2=O)Cc2cc3ccccc3nc2-1 | 206 | 74.3 | 54.9 | 97.7 | 74.7 | – | 1120
CC[C@@]1(OC(=O)CNC(=O)[C@H](CC(C)C)NC(=O)OC(C)(C)C)C(=O)OCc2c1cc1n(c2=O)Cc2cc3ccccc3nc2-1 | 125 | 44.6 | 34.8 | 162 | 87.6 | – | 1060
